Reference: patent EP4813463A2, “TYK2 INHIBITORS AND COMPOSITIONS AND METHODS THEREOF” (Lynk Pharmaceuticals Co. Ltd., priority 2023, dated 2024)
pIC50: −log10 of the molar value. In brackets after ≈: the same amount, converted by molar mass. Like-named read-outs stand apart in the source and are kept apart here.

Experiments:
JAK1-JH2 domain = target: T1, JAK1-JH2 domain (Homo sapiens, UniProt P23458); assay: Binding activity test for JH2 domain of JAK1 (Tb-antibody/tracer FRET); conditions: JH2 domain enzyme; 60 min at 25°C, then 4°C overnight; read-out: JAK1 JH2 Binding IC50
T1 construct: JAK1-JH2 domain or TYK2-JH2 domain enzyme in assay buffer
T1 sequence (P23458 583-855 limits assumed): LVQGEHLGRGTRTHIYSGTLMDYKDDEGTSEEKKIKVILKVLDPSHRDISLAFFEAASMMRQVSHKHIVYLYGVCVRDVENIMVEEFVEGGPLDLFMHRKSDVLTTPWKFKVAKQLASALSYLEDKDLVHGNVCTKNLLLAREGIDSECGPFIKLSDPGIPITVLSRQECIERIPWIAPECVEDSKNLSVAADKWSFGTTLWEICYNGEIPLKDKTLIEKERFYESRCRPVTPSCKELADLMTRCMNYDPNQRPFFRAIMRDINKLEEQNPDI
Procedure, shortened: (§1)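 IC50 values (nM) come from TR-FRET readings taken after a 25°C incubation followed by overnight at 4°C. Each well held JH2 domain protein, Tb-antibody, tracer and test compound titrated in 11 threefold steps, with DMSO high and low controls.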

Kinetic solubility = assay type: physicochemical; conditions: 100 mM pH 7.4 phosphate buffer, 1% DMSO, room temperature, read-out: Kinetics Solubility_PBS7.4
Procedure: Aliquots of 8 µL of reference and test compound stock solutions (10 mM/5 mM) are added into 792 µL of 100 mM pH 7.4 phosphate buffer. The final DMSO concentration is 1%. Sample tubes are shaken for 2 hours at 1000 rpm at room temperature. Samples are centrifuged at 12000 rpm for 10 min to precipitate un-dissolved particles. And transfer the supernatants to a new tube or plate. Add 5 µL of samples (no diluted, 10 times diluted, and 100 times diluted) and standard curve samples to 95 µL of ACN containing IS for LC-MS/MS analysis. Kinetic Solubilities Values of Exemplary Compounds

TYK2-JH2 domain = target: T2, TYK2-JH2 domain (Homo sapiens, UniProt P29597); assay: Binding activity test for JH2 domain of TYK2 (Tb-antibody/tracer FRET); conditions: for pIC50: JH2 domain enzyme, 60 min at 25°C, then 4°C overnight, read-out: TYK2 JH2 Binding IC50; for JAK1/TYK2 selectivity: ratio of JAK1 JH2 to TYK2 JH2 binding IC50
T2 construct: JAK1-JH2 domain or TYK2-JH2 domain enzyme in assay buffer
T2 sequence (P29597 589-875 limits assumed): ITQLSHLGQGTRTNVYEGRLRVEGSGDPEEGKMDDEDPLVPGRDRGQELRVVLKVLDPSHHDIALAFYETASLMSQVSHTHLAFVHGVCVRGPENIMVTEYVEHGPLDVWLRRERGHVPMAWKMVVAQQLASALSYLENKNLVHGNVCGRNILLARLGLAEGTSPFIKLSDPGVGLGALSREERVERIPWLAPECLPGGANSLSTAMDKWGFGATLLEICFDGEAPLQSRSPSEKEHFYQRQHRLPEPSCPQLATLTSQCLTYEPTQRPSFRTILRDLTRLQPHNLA
Procedure, shortened: as §1

[1] = tested on: Ba/F3-FL-TYK2-P760L cells; assay: Anti-proliferative assay in engineered Ba/F3 cells (Cell-Titer Glo, 72 h); assay type: cell-based; conditions: 72 h compound treatment, concentration that causes 50% growth inhibition, read-out: Baf3-FL-T2P760L
Procedure, shortened: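 IC50 from luminescent ATP viability after 72 h compound exposure (37 °C, 5% CO2), % inhibition normalised to DMSO-treated cells minus medium blank. IL-3-free Ba/F3-FL-TYK2-P760L (Tel-JAK fusion) cells in 10% FBS RPMI-1640 received 9 three-fold doses, top 20 µM, 0.1% DMSO.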

pSTAT1 = assay: Phosphorylation inhibition of STAT in human whole blood (IFN-alpha stimulated, flow cytometry); assay type: cell-based; conditions: T-cell, 20 min, IFN-alpha stimulation 20 mins, CD3 T cells, read-out: pSTAT1 inhibition in hWB (IC50)
Procedure: The inhibitory potential of test articles in human whole blood assay was evaluated by the method of flow cytometry.
IFN-alpha will activate JAK1 and TYK2 kinase in T cells by binding to IFN receptors, and then lead to phosphorylation of STAT1 and STAT2. The phosphorylated STAT1 enter nuclear and promote transcription and expression of IFN-gamma. To evaluate the efficacy of TYK2i in T cells, freshly collected human whole blood will be stimulated with certain unit of human IFN-alpha (Universal Type I IFN(1MU), R&D, 11200-2) for 20 mins in incubator. After stimulation, fix cells with Phosflow™ Fix Buffer I (BD, 557870), and then collect fixed cells by centrifugation (500 g, 8min). Wash cells once with pre-cooled PBS, and then permeabilize cells with cold Perm Buffer III buffer (BD, 558050) for 45 mins on ice. Collect cells by centrifugation (600 g, 8min) and washed twice with cold PBS. Stain cells with anti-human CD3(FITC Mouse Anti-Human CD3, BD, 555332) and anti-pSTAT1_Y701(Alexa Fluor 647 Mouse Anti-Stat1 (pY701), BD, 612597) antibodies. Detect pSTAT1 by flow cytometry (CytoFlex S) and analyze data with FlowJo and GraphPad Prism 8 software. IC50 values of test articles were determined using 4- parameter logistic equation.

[2] = Microsomal metabolic stability assay; assay type: in vitro ADME; conditions: human, liver microsomes, pH 7.4, 0.5 mg/mL microsomal protein, 1 µM test article, 2 mM NADPH; for microsomal CLint at 1 µM: read-out: Human LM Clint; for half-life at 1 µM: read-out: Human LM T1/2
Procedure: Microsomes were pre-incubated with test compound or control compounds for 5 min at 37°C in 100 mM potassium phosphate buffer, pH 7.4, 1.0 mM EDTA. The reaction was initiated by addition of 15 µL of the NADPH regenerating system to 30 µL of each incubation mixture per time point. The final incubation condition was composed of 0.5 mg/mL microsomal protein, 1 µM test article/positive control, 2 mM NADPH. The 0-minute samples were prepared by addition of a 30 µL aliquot of each incubation mixture to 135 µL quench reagent to precipitate proteins. And then a 15 µL aliquot of the NADPH regenerating system was added. At 5, 15, 30 and 45 minutes, the reaction will be stopped by the addition of cold acetonitrile solution containing internal standard. The samples taken at all time points were centrifuged at 5000×g for 15 minutes. 50 µL of supernatant are taken into 96-well assay plates pre-added with 50 µL ultrapure water, and then analyzed by LC/MS/MS.
Concentrations of test articles, control compounds in the samples were determined by using LC/MS/MS method. Plotting of the chromatograms and peak area integrations are carried out by Analyst (AB Sciex).
In the determination of the in vitro elimination constant (ke) of the control compounds, the analyte/internal standard peak area ratios will be converted to percentage remaining (%Remaining) with the following equation: %Remaining = (Peak area ratio of analyte to IS at each time point)/(Peak area ratio of analyte to IS at t = 0) × 100% [formula]
The CLint of microsomes was calculated using the formula: CLint (mic)=0.693/T1/2 /mg microsome protein per mL. The slope was measured by the natural logarithm of the percentage of the residual compound and time, T1/2 was calculated according to the following formula. T = (0.693)/(−slope) [formula]

[3] = phosphate buffer, pH 7.4, aqueous buffer, kinetic from dmso stock

| Structure (SMILES) | pIC50 (JAK1-JH2 domain) | solubility kinetic at 2 h (Kinetic solubility) | pIC50 (TYK2-JH2 domain) | JAK1/TYK2 selectivity (TYK2-JH2 domain) | pIC50 [1] | solubility kinetic at 2 h (Kinetic solubility; [3]) | pIC50 ([1]; Mus musculus, BaF3, 72 h) | pIC50 (pSTAT1) | microsomal CLint at 1 µM [2] | half-life at 1 µM [2] |
| --- | --- | --- | --- | --- | --- | --- | --- | --- | --- | --- |
| [2H]C([2H])([2H])NC(=O)c1cnc(NC(=O)C2CC2)cc1Nc1cnn2ccc(C(C)C(F)(F)F)c(OC)c12 (single isomer, unassigned) [Example 9A, (R*) -6-(cyclopropanecarboxamido)-4-((4-methoxy-5-(1,1,1-trifluoropropan-2-yl)pyrazolo[1,5-a]pyridin-3-yl)amino)-N-(methyl-d3)nicotinamide] | 7.41 | 35.80 µM (≈ 17.2 µg/mL) | 9.37 | 91.9 | 5.67 | – | – | – | – | – |
| [2H]C([2H])([2H])NC(=O)c1cnc(NC(=O)C2CC2)cc1Nc1cnn2ccc(C(C)C(F)(F)F)c(OC)c12 (stereo not drawn) [Example 9, 6-(Cyclopropanecarboxamido)-4-((4-methoxy-5-(1,1,1-trifluoropropan-2-yl)pyrazolo[1,5-a]pyridin-3-yl)amino)-N-(methyl-d3)nicotinamide] | 8.06 | – | 9.80 | 55.4 | 7.29 | 60 µM (≈ 28.8 µg/mL) | – | – | – | – |
| [2H]C([2H])([2H])NC(=O)c1cnc(NC(=O)C2CC2)cc1Nc1cnn2ccc(C#N)c(OC)c12 [Example 12, 4-((5-Cyano-4-methoxypyrazolo[1,5-a]pyridin-3-yl)amino)-6-(cyclopropanecarboxamido)-N-(methyl-d3)nicotinamide] | 7.68 | – | 9.51 | 68.5 | – | 15.1 µM (≈ 6.18 µg/mL) | 6.71 | – | – | – |
| [2H]C([2H])([2H])NC(=O)c1cnc(NC(=O)C2CC2)cc1Nc1cnn2ccc(CC#N)c(OC)c12 [Example 18, 4-((5-(Cyanomethyl)-4-methoxypyrazolo[1,5-a]pyridin-3-yl)amino)-6-(cyclopropanecarboxamido)-N-(methyl-d3)nicotinamide] | 8.79 | – | 9.89 | 12.5 | – | – | 7.04 | 7.07 | – | – |
| [2H]C([2H])([2H])NC(=O)c1cnc(NC(=O)C2(F)CC2)cc1Nc1cnn2ccc([C@H](O)C(F)(F)F)c(OC)c12 [Example 19, (S)-6-(1-fluorocyclopropane-1-carboxamido)-4-((4-methoxy-5-(2,2,2-trifluoro-1-hydroxyethyl)pyrazolo[1,5-a]pyridin-3-yl)amino)-N-(methyl-d3)nicotinamide] | 6.56 | – | 9.56 | 1011.9 | – | 22.7 µM (≈ 11.3 µg/mL) | 6.86 | – | – | – |
| [2H]C([2H])([2H])NC(=O)c1cnc(NC(=O)C2CC2)cc1Nc1cnn2ccc(CC(C)(F)F)c(OC)c12 [Example 20, 6-(Cyclopropanecarboxamido)-4-((5-(2,2-difluoropropyl)-4-methoxypyrazolo[1,5-a]pyridin-3-yl)amino)-N-(methyl-d3)nicotinamide] | 7.87 | – | 10.24 | 235.2 | – | 15 µM (≈ 6.92 µg/mL) | 7.64 | – | – | – |
| [2H]C([2H])([2H])NC(=O)c1cnc(NC(=O)C2CC2)cc1Nc1cnn2ccc(CO)c(OC)c12 [Example 22, 6-(Cyclopropanecarboxamido)-4-((5-(hydroxymethyl)-4-methoxypyrazolo[1,5-a]pyridin-3-yl)amino)-N-(methyl-d3)nicotinamide] | 8.12 | – | 9.73 | 40.6 | – | – | 6.89 | 7.09 | 4.5 µL/min/mg | 5.13 h |
| [2H]C([2H])([2H])NC(=O)c1cnc(NC(=O)C2CC23CC3)cc1Nc1cnn2ccc([C@H](O)C(F)(F)F)c(OC)c12 (stereo partly drawn) [Example 32, 4-((4-Methoxy-5-((S)-2,2,2-trifluoro-1-hydroxyethyl)pyrazolo[1,5-a]pyridin-3-yl)amino)-N-(methyl-d3)-6-(spiro[2.2]pentane-1-carboxamido)nicotinamide] | 7.63 | – | 9.77 | 137.2 | – | 62.2 µM (≈ 31.6 µg/mL) | 7.37 | – | – | – |
| [2H]C([2H])([2H])NC(=O)c1nnc(NC(=O)C2CC2)cc1Nc1nn(C)c2ccc([C@H](OC)C(F)(F)F)c(OC)c12 [Example 51B, (S)-6-(cyclopropanecarboxamido)-4-((4-methoxy-1-methyl-5-(2,2,2-trifluoro-1-methoxyethyl)-1H-indazol-3-yl)amino)-N-(methyl-d3)pyridazine-3-carboxamide] | 8.90 | – | 9.77 | 7.43 | – | – | 9.40 | 7.12 | 8.06 µL/min/mg | 2.87 h |
| CNC(=O)c1nnc(NC(=O)C2CC2)cc1Nc1nc2ccc(N3CC(OC)C3)cn2n1 [Example 188, 6-(Cyclopropanecarboxamido)-4-((6-(3-methoxyazetidin-1-yl)-[1,2,4]triazolo[1,5-a]pyridin-2-yl)amino)-N-methylpyridazine-3-carboxamide, reference compound] | – | – | – | – | – | 1.01 µM (≈ 0.442 µg/mL) | – | – | – | – |
| [2H]C([2H])([2H])NC(=O)c1cnc(NC(=O)[C@@H]2C[C@@H]2F)cc1Nc1nn(C)c2ccc([C@H](OC([2H])([2H])[2H])C(F)(F)F)c(OC)c12 [Example 192, 6-((1S,2S)-2-Fluorocyclopropane-1-carboxamido)-4-((4-methoxy-1-methyl-5-((S)-2,2,2-trifluoro-1-(methoxy-d3)ethyl)-1H-indazol-3-yl)amino)-N-(methyl-d3)nicotinamide] | 8.58 | – | 10.12 | 35.08 | – | – | 10.06 | 7.61 | – | – |
| [2H]C([2H])([2H])NC(=O)c1nnc(NC(=O)C2CC2)cc1Nc1ncn2cccc2c1OC [Example 198, 6-(Cyclopropanecarboxamido)-4-((4-methoxypyrrolo[1,2-c]pyrimidin-3-yl)amino)-N-(methyl-d3)pyridazine-3-carboxamide, reference compound] | 7.98 | – | 8.83 | 7.0 | – | – | 6.59 | 5.83 | – | – |
